Where a name gives a salt, the structure may show the parent alone.
target: recombinant human enteropeptidase (Homo sapiens (Human), UniProt P98073); assay: Measurement of enteropeptidase inhibitory activity; type: biochemical; conditions: Dixon plot
Experimental: Measurement of Enteropeptidase Inhibitory Activity
Using a 96 well plate (#3915, Costar), a test compound (25 μL), 400 mM Tris-HCl buffer (pH 8.0, 25 μL) and 0.5 mg/mL fluorescence enzyme substrate (Gly-Asp-Asp-Asp-Asp-Lys-β-Naphtylamide, 25 μL) were mixed, and recombinant human enteropeptidase (R&D Systems, Inc., 25 μL) was added. Using a fluorescence plate reader fmax (Molecular Devices, Inc.), the reaction rate was measured from the time-course changes at excitation wavelength 320 nm and fluorescence wavelength 405 nm. The Ki value was calculated from the concentration of the test compound, reciprocal of reaction rate, and Km value of the enzyme substrate, and by using Dixon plot.

Chain of recombinant human enteropeptidase (P98073 whole entry): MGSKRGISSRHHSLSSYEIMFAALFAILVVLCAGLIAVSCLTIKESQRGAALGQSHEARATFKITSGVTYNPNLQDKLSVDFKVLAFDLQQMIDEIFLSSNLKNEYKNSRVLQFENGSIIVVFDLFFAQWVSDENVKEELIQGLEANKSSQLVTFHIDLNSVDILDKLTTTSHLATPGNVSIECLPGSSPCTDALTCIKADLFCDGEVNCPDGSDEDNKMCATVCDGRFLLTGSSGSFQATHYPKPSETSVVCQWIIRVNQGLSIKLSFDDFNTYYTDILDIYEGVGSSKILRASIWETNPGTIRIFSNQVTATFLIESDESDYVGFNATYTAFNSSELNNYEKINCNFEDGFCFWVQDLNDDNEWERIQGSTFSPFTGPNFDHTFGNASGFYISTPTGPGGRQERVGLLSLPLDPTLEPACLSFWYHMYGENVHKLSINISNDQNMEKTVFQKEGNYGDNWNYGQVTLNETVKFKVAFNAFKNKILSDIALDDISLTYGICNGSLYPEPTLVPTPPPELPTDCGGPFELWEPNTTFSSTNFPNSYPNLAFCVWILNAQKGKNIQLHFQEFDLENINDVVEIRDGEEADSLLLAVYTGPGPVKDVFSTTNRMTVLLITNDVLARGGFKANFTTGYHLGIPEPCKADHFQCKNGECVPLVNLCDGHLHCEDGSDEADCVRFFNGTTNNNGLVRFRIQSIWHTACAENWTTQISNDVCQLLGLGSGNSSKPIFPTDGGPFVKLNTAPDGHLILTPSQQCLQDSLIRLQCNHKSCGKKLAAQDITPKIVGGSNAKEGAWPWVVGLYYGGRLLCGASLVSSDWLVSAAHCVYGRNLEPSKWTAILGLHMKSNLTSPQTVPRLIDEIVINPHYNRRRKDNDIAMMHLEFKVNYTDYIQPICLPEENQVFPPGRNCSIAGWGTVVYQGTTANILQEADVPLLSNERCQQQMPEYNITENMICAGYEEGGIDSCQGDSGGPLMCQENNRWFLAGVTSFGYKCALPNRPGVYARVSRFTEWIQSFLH

Ki [nM]	Compound
0.42	N=C(N)c1ccc(OC(=O)c2ccc(CC(CCC(=O)O)C(=O)N[C@@H](CC(=O)O)C(=O)O)o2)cc1 (stereo partly drawn) [Compound A-61, N-{3-[5-(4-amidinophenoxycarbonyl)-furan-2-yl]-2-(carboxyethyl)propanoyl}-L-aspartic acid trifluoroacetic acid salt]
2.1	CC(Cc1cc(C(=O)Oc2ccc(C(=N)N)cc2)co1)C(=O)N[C@@H](CC(=O)O)C(=O)O (stereo partly drawn) [Compound A-62, N-{3-[4-(4-amidinophenoxycarbonyl)-furan-2-yl]-2-methylpropanoyl}-L-aspartic acid trifluoroacetic acid salt]
0.53	CC(Cc1cc(C(=O)Oc2ccc(C(=N)N)cc2F)co1)C(=O)O (stereo not shown) [Compound A-63, 3-[4-(4-amidino-2-fluorophenoxycarbonyl)furan-2-yl]-2-methylpropanoic acid trifluoroacetic acid salt]
2.5	CC(Cc1cc(C(=O)Oc2ccc(C(=N)N)cc2)co1)C(=O)NCP(=O)(O)O (stereo not shown) [Compound A-64]
1	CC(Cc1cc(C(=O)Oc2ccc(C(=N)N)cc2)co1)C(=O)N[C@@H](CS(=O)(=O)O)C(=O)O (stereo partly shown) [Compound A-65]
0.32	CC(Cc1cc(C(=O)Oc2ccc(C(=N)N)cc2F)co1)C(=O)N[C@@H](CC(=O)O)C(=O)O (stereo partly shown) [Compound A-66]
0.52	CC(Cc1coc(C(=O)Oc2ccc(C(=N)N)cc2)c1)C(=O)N[C@@H](CC(=O)O)C(=O)O (stereo partly drawn) [Compound A-67, N-[3-[2-(4-amidinophenoxycarbonyl)-furan-4-yl]-2-methylpropanoyl]-L-aspartic acid trifluoroacetic acid salt]
2.2	N=C(N)c1ccc(OC(=O)c2ccc(-c3ccc(C(=O)N[C@@H](CC(=O)O)C(=O)O)cc3)o2)cc1 [Compound A-68, N-{4-[5-(4-amidinophenoxycarbonyl)-furan-2-yl]benzoyl}-L-aspartic acid trifluoroacetic acid salt]
4.7	N=C(N)c1ccc(OC(=O)c2ccc(-c3ccc(C(=O)NCC(=O)O)cc3)o2)cc1 [Compound A-69]
2.7	N=C(N)c1ccc(OC(=O)c2ccc(-c3ccc(C(=O)NCP(=O)(O)O)cc3)o2)cc1 [Compound A-70]
1.6	N=C(N)c1ccc(OC(=O)c2ccc(-c3cccc(C(=O)N[C@@H](CC(=O)O)C(=O)O)c3)o2)cc1 [Compound A-71, N-{3-[5-(4-amidinophenoxycarbonyl)-furan-2-yl]benzoyl}-L-aspartic acid trifluoroacetic acid salt]
0.88	CC(Cc1ccc(C(=O)Oc2ccc(C(=N)N)cc2)o1)C(=O)SC(CC(=O)O)C(=O)O (stereo not drawn) [Compound A-73, S-{3-[5-(4-amidinophenoxycarbonyl)-furan-2-yl]-2-methylpropionyl}thiomalic acid trifluoroacetic acid salt]
2.6	CC(Cc1ccc(C(=O)Oc2ccc(C(=N)N)cc2)o1)C(=O)NN(CC(=O)O)CC(=O)O (stereo not shown) [Compound A-74, (N′-carboxymethyl-{3-[5-(4-amidinophenoxycarbonyl)furan-2-yl]-2-methylpropane}hydrazido)-acetic acid trifluoroacetic acid salt]
9.29	C/C(=C\c1ccc(C(=O)Oc2ccc(C(=N)N)cc2)s1)C(=O)NCC(=O)O [Compound B-2]
5.72	C/C(=C\c1ccc(C(=O)Oc2ccc(C(=N)N)cc2)s1)C(=O)N[C@@H](CO)C(=O)O [Compound B-3]
1.44	CC(Cc1ccc(C(=O)Oc2ccc(C(=N)N)cc2)s1)C(=O)O (stereo not shown) [Compound B-6, 3-[5-(4-amidinophenoxycarbonyl)-thiophen-2-yl]-2-methylpropanoic acid trifluoroacetic acid salt]
2.15	C/C(=C\c1ccc(C(=O)Oc2ccc(C(=N)N)cc2)s1)C(=O)N(CCCO)CCS(=O)(=O)O [Compound B-7, N-{(2E)-3-[5-(4-amidinophenoxycarbonyl)thiophen-2-yl]-2-methylpropenoyl}-N-hydroxypropyltaurine trifluoroacetic acid salt]
0.84	C/C(=C\c1ccc(C(=O)Oc2ccc(C(=N)N)cc2[N+](=O)[O-])s1)C(=O)O [Compound B-8]
1.41	CC(Cc1ccc(C(=O)Oc2ccc(C(=N)N)cc2[N+](=O)[O-])s1)C(=O)N(CCCO)CC(=O)O (stereo not shown) [Compound B-11, N-{3-[5-(4-amidino-2-nitrophenoxycarbonyl)thiophen-2-yl]-2-methylpropanoyl}-N-(3-hydroxypropyl)glycine hydrochloride]
2.21	CC(Cc1ccc(C(=O)Oc2ccc(C(=N)N)cc2)s1)C(=O)NCC(=O)O (stereo not shown) [Compound B-12]
0.29	CC(Cc1ccc(C(=O)Oc2ccc(C(=N)N)cc2Br)s1)C(=O)O (stereo not shown) [Compound B-16, 3-[5-(4-amidino-2-bromophenoxycarbonyl)thiophen-2-yl]-2-methylpropionic acid trifluoroacetic acid salt]
0.42	CC(Cc1ccc(C(=O)Oc2ccc(C(=N)N)cc2Cl)s1)C(=O)O (stereo not shown) [Compound B-17]
0.42	CC(Cc1ccc(C(=O)Oc2ccc(C(=N)N)cc2F)s1)C(=O)O (stereo not shown) [Compound B-19]
0.28	CC(Cc1ccc(C(=O)Oc2ccc(C(=N)N)cc2F)s1)C(=O)N[C@@H](CC(=O)O)C(=O)O (stereo partly shown) [Compound B-20]
0.56	CC(Cc1ccc(C(=O)Oc2ccc(C(=N)N)cc2F)s1)C(=O)N[C@@H](CCC(=O)O)C(=O)O (stereo partly shown) [Compound B-21]

Ki [nM]	Compound
0.5	CC(Cc1ccc(C(=O)Oc2ccc(C(=N)N)cc2F)s1)C(=O)N[C@H](CC(=O)O)C(=O)O (stereo partly shown) [Compound B-22]
0.49	CC(Cc1ccc(C(=O)Oc2ccc(C(=N)N)c(F)c2)s1)C(=O)O (stereo not shown) [Compound B-24]
0.79	C[C@H](Cc1ccc(C(=O)Oc2ccc(C(=N)N)cc2F)s1)C(=O)N[C@@H](CC(=O)O)C(=O)O [Compound B-25, N-{3-[5-(4-amidino-2-fluorophenoxycarbonyl)thiophen-2-yl]-2R-methylpropionyl}-L-aspartic acid trifluoroacetic acid salt]
2.2	CC(C)C[C@H](Cc1ccc(C(=O)Oc2ccc(C(=N)N)cc2F)s1)C(=O)N[C@@H](CC(=O)O)C(=O)O [Compound B-26, N-{3-[5-(4-amidino-2-fluorophenoxycarbonyl)thiophen-2-yl]-2R-isobutylpropionyl}-L-aspartic acid trifluoroacetic acid salt]
0.95	CC(C)C[C@@H](Cc1ccc(C(=O)Oc2ccc(C(=N)N)cc2F)s1)C(=O)N[C@@H](CC(=O)O)C(=O)O [Compound B-27]
1.1	CCC[C@H](Cc1ccc(C(=O)Oc2ccc(C(=N)N)cc2F)s1)C(=O)N[C@@H](CC(=O)O)C(=O)O [Compound B-28]
0.58	CCC[C@@H](Cc1ccc(C(=O)Oc2ccc(C(=N)N)cc2F)s1)C(=O)N[C@@H](CC(=O)O)C(=O)O [Compound B-29]
0.52	CC(Cc1ccc(C(=O)Oc2ccc(C(=N)N)c(F)c2)s1)C(=O)N[C@@H](CC(=O)O)C(=O)O (stereo partly shown) [Compound B-30]
0.31	N=C(N)c1ccc(OC(=O)c2ccc(CCC(=O)N[C@@H](CC(=O)O)C(=O)O)s2)c(F)c1 [Compound B-32, N-{3-[5-(4-amidino-2-fluorophenoxycarbonyl)thiophen-2-yl]propanoyl}-L-aspartic acid trifluoroacetic acid salt]
2.8	CCCC(Cc1ccc(C(=O)Oc2ccc(C(=N)N)cc2)s1)C(=O)N[C@@H](CC(=O)O)C(=O)O (stereo partly shown) [Compound B-33]
2.2	CC(Cc1ccc(C(=O)Oc2ccc(C(=N)N)cc2F)s1)C(=O)N1CCCC(C(=O)O)C1 (stereo not shown) [Compound B-34]
0.4	CC(Cc1ccc(C(=O)Oc2ccc(C(=N)N)cc2F)s1)C(=O)N[C@@H](CO)C(=O)O (stereo partly shown) [Compound B-35]
0.51	N=C(N)c1ccc(OC(=O)c2ccc(CCC(=O)N[C@H](CC(=O)O)C(=O)O)s2)c(F)c1 [Compound B-36]
0.5	N=C(N)c1ccc(OC(=O)c2ccc(CCC(=O)N(CCC(=O)O)CC(=O)O)s2)c(F)c1 [Compound B-37]
0.75	C=CCN(CC(=O)O)C(=O)CCc1ccc(C(=O)Oc2ccc(C(=N)N)cc2F)s1 [Compound B-38, N-{3-[5-(4-amidino-2-fluorophenoxycarbonyl)thiophen-2-yl]propionyl}-N-allylglycine trifluoroacetic acid salt]
0.95	CC(Cc1ccc(C(=O)Oc2ccc(C(=N)N)cc2)s1)C(=O)N[C@@H](CS(=O)(=O)O)C(=O)O (stereo partly drawn) [Compound B-39, N-{3-[5-(4-amidinophenoxycarbonyl)-thiophen-2-yl]-2-methylpropanoyl}-L-cysteic acid trifluoroacetic acid salt]
2	CC(Cc1ccc(C(=O)Oc2ccc(C(=N)N)cc2)s1)C(=O)NCP(=O)(O)O (stereo not shown) [Compound B-40, N-{3-[5-(4-amidinophenoxycarbonyl)-thiophen-2-yl]-2-methylpropanoyl}aminomethylphosphonic acid trifluoroacetic acid salt]
0.27	CC(Cc1ccc(C(=O)Oc2ccc(C(=N)N)cc2F)s1)C(=O)N[C@@H](CS(=O)(=O)O)C(=O)O (stereo partly shown) [Compound B-41]
0.37	CC(Cc1ccc(C(=O)Oc2ccc(C(=N)N)cc2F)s1)C(=O)NCP(=O)(O)O (stereo not shown) [Compound B-42]
0.42	CC(Cc1ccc(C(=O)Oc2ccc(C(=N)N)cc2Cl)s1)C(=O)NCP(=O)(O)O (stereo not shown) [Compound B-43]
0.21	CC(Cc1ccc(C(=O)Oc2ccc(C(=N)N)cc2Cl)s1)C(=O)N[C@@H](CS(=O)(=O)O)C(=O)O (stereo partly shown) [Compound B-44]
2.5	CC(CCC(=O)O)Cc1ccc(C(=O)Oc2ccc(C(=N)N)cc2)s1 (stereo not shown) [Compound B-47]
0.88	CC(CCC(=O)O)Cc1ccc(C(=O)Oc2ccc(C(=N)N)cc2F)s1 (stereo not shown) [Compound B-48]
0.41	CC(CCC(=O)N[C@@H](CC(=O)O)C(=O)O)Cc1ccc(C(=O)Oc2ccc(C(=N)N)cc2F)s1 (stereo partly shown) [Compound B-49]
